As usually defined, the IC50 is the concentration that inhibits the measured activity by half. Low readings indicate inhibition by little substance, high ones a need for much substance.

Some results are limits rather than exact numbers.

Data on 63 compounds can be found in ChEMBL document CHEMBL5728971, “Small molecule inhibitors of lactate dehydrogenase and methods of use thereof” (2022).

This experiment in a line: Biochemical Assay: Test compounds were placed in a Greiner Bio-One (Monroe, N.C.) 1536-well black solid bottom assay plate. 200 millimolar (mM) Tris HCl, pH 7.4, 100 micromolar (μM) EDTA and 0.01% TWEEN-20™, final concentration, was used as the assay buffer. The LDHA reagent was 2 nanomolar (nM) Human LDHA (Meridian Life Science, Inc., Memphis, Tenn.), final concentration, in assay buffer.
On to `NS(=O)(=O)c1ccc(Cc2c(-c3ccc(F)c(-c4cccs4)c3)nn(-c3nc(C(=O)O)cs3)c2CC2CC2)cc1F`, for which the 50% inhibitory concentration (IC50) was < 100 nM.

As for `CCOC(=O)c1csc(-n2nc(-c3ccc(F)c(-c4ccc(F)cc4)c3)c(Cc3ccc(S(N)(=O)=O)cc3F)c2CC2CC2)n1`, the IC50 result is “in the range around 29000 nM”.

Regarding `CCC(C)(C)c1cc(-c2nn(-c3nc(C(=O)O)cs3)c(CC3CC3)c2Cc2ccc(S(N)(=O)=O)c(F)c2)ccc1F`, the IC50 is < 100 nM.

Take `Cc1ccc(-c2cc(-c3nn(-c4nc(C(=O)O)cs4)c(CC4CC4)c3Cc3ccc(S(N)(=O)=O)c(F)c3)ccc2F)cc1`: the IC50 is < 100 nM.

In the case of `COc1cc(-c2nn(-c3nc(C(=O)O)cs3)c(CC3CC3)c2Cc2ccc(S(N)(=O)=O)cc2)ccc1F`, the IC50 is < 100 nM.

As for `CNS(=O)(=O)c1ccc(Cc2c(-c3ccc(F)c(-c4cccc(F)c4)c3)nn(-c3nc(C(=O)O)cs3)c2CC2CC2)cc1F`, the concentration for half-maximal inhibition (IC50) entry was “in the range around 550 nM”.

For `Cc1noc(C)c1-c1cc(-c2c(Cc3ccc(S(N)(=O)=O)c(F)c3)c(CC3CC3)nn2-c2nc(C(=O)O)cs2)ccc1F`, the concentration for half-maximal inhibition (IC50) is > 57000 nM.

For the compound `CCOC(=O)c1csc(-n2nc(CC3CC3)c(Cc3ccc(S(N)(=O)=O)cc3F)c2-c2ccc(F)c(-c3cccc(F)c3)c2)n1`, the IC50 was > 57000 nM.

With `NS(=O)(=O)c1ccc(Cc2c(CC3CC3)nn(-c3nc(C(=O)O)cs3)c2-c2ccc(F)c(-c3ccc(C4CC4)cc3)c2)cc1`, the 50% inhibitory concentration (IC50) entry was “in the range around 29000 nM”.

As to `CC(C)C#Cc1cc(-c2nn(-c3nc(C(=O)O)cs3)c(CC3CC3)c2Cc2ccc(S(N)(=O)=O)c(F)c2)ccc1F`, the IC50 is < 100 nM.

In the case of `Cc1csc(-c2cc(-c3c(Cc4ccc(S(N)(=O)=O)cc4F)c(CC4CC4)nn3-c3nc(C(=O)O)cs3)ccc2F)c1`, the IC50 is > 57000 nM.

For the compound `NS(=O)(=O)c1ccc(Cc2c(CC3CC3)nn(-c3nc(C(=O)O)cs3)c2-c2ccc(F)c(-c3cccc(F)c3)c2)c(F)c1`, the 50% inhibitory concentration (IC50) entry was “in the range around 29000 nM”.

Take `NS(=O)(=O)c1ccc(Cc2c(-c3ccc(F)c(C#CC4(O)CCCC4)c3)nn(-c3nc(C(=O)O)cs3)c2CC2CC2)cc1F`: the IC50 is < 100 nM.

On to `NS(=O)(=O)c1ccc(Cc2c(-c3ccc(F)c(/C=C/C4CCCC4)c3)nn(-c3nc(C(=O)O)cs3)c2CC2CC2)cc1F`, for which the 50% inhibitory concentration (IC50) was < 100 nM.

Consider `NS(=O)(=O)c1ccc(Cc2c(-c3ccc(F)c(CC4CC4)c3)nn(-c3nc(C(=O)O)cs3)c2CC2CC2)cc1F`, for which the IC50 was < 100 nM.

Turning to `CCOC(=O)c1csc(-n2nc(-c3ccc(F)c(C#CC4CC4)c3)c(Cc3ccc(S(N)(=O)=O)cc3)c2CC2CC2)n1`, the IC50 result was “in the range around 29000 nM”.

In the case of `NS(=O)(=O)c1ccc(Cc2c(-c3ccc(F)c(C#CC4CCCC4)c3)nn(-c3nc(C(=O)O)cs3)c2CC2CC2)cc1F`, the IC50 is < 100 nM.

Regarding `NS(=O)(=O)c1ccc(Cc2c(-c3cccc(OCc4ccccc4)c3)nn(-c3nc(C(=O)O)cs3)c2CC2CC2)cc1F`, the IC50 is < 100 nM.

Consider `NS(=O)(=O)c1ccc(Cc2c(-c3ccc(F)c(C#CC4=CCCC4)c3)nn(-c3nc(C(=O)O)cs3)c2CC2CC2)cc1F`, for which the concentration for half-maximal inhibition (IC50) was < 100 nM.

For the compound `CCOC(=O)c1csc(-n2nc(CC3CC3)c(Cc3ccc(S(N)(=O)=O)cc3F)c2-c2ccc(F)c(-c3cccc(OC)c3)c2)n1`, the half-maximal inhibitory concentration (IC50) was > 57000 nM.

For `C/C=C/c1cc(-c2nn(-c3nc(C(=O)O)cs3)c(CC3CC3)c2Cc2ccc(S(N)(=O)=O)c(F)c2)ccc1F`, the IC50 was < 100 nM.

In the case of `CCOC(=O)c1csc(-n2nc(-c3ccc(F)c(-c4cccc(F)c4)c3)c(Cc3ccc(S(N)(=O)=O)cc3F)c2CC2CC2)n1`, the half-inhibitory concentration (IC50) result is “in the range around 29000 nM”.

Consider `O=C(O)c1ccc(Cc2c(-c3cccc(-c4ccccc4)c3)nn(-c3nc(C(=O)O)cs3)c2O)cc1`, for which the IC50 is > 57000 nM.

On to `NS(=O)(=O)c1ccc(Cc2c(-c3ccc(F)c(C#CCN4CCOCC4)c3)nn(-c3nc(C(=O)O)cs3)c2CC2CC2)cc1F`, for which the half-inhibitory concentration (IC50) was < 100 nM.

Consider `NS(=O)(=O)c1ccc(Cc2c(C3CC3)nn(-c3nc(C(=O)O)cs3)c2-c2cccc(-c3ccc(F)cc3)c2)cc1F`, for which the IC50 result is “in the range around 29000 nM”.

Take `CC#Cc1cccc(-c2nn(-c3nc(C(=O)OCC)cs3)c(CC3CC3)c2Cc2ccc(S(N)(=O)=O)c(F)c2)c1`: the IC50 result was “in the range around 29000 nM”.

Regarding `Cc1ccc(-c2cc(-c3c(Cc4ccc(S(N)(=O)=O)cc4F)c(CC4CC4)nn3-c3nc(C(=O)O)cs3)ccc2F)s1`, the IC50 is > 57000 nM.

With `COc1cc(-c2c(Cc3ccc(S(N)(=O)=O)cc3)c(CC3CC3)nn2-c2nc(C(=O)O)cs2)ccc1F`, the half-inhibitory concentration (IC50) result is “in the range around 29000 nM”.

Turning to `NS(=O)(=O)c1ccc(Cc2c(-c3ccc(F)c(C4CCCC4)c3)nn(-c3nc(C(=O)O)cs3)c2CC2CC2)cc1F`, the concentration for half-maximal inhibition (IC50) is < 100 nM.

Turning to `NS(=O)(=O)c1ccc(Cc2c(-c3cccc(C(O)(C4CC4)C(F)(F)F)c3)nn(-c3nc(C(=O)O)cs3)c2CC2CC2)cc1F` (stereo not drawn), the 50% inhibitory concentration (IC50) is < 100 nM.

As to `NS(=O)(=O)c1ccc(Cc2c(C3(C(F)(F)F)CC3)nn(-c3nc(C(=O)O)cs3)c2-c2cccc(-c3ccccc3)c2)cc1`, the 50% inhibitory concentration (IC50) entry is “in the range around 29000 nM”.

For `Cc1ccc(-c2cc(-c3nn(-c4nc(C(=O)O)cs4)c(CC4CC4)c3Cc3ccc(S(N)(=O)=O)c(Cl)c3)ccc2F)s1`, the IC50 is < 100 nM.

With `NS(=O)(=O)c1ccc(Cc2c(-c3ccc(F)c(-c4ccccc4F)c3)nn(-c3nc(C(=O)O)cs3)c2CC2CC2)cc1F`, the IC50 is < 100 nM.

For the compound `NS(=O)(=O)c1ccc(Cc2c(-c3ccc(F)c(C4CCCCC4)c3)nn(-c3nc(C(=O)O)cs3)c2CC2CC2)cc1F`, the 50% inhibitory concentration (IC50) was < 100 nM.

In the case of `CCOC(=O)c1csc(-n2nc(-c3cccc(-c4ccccc4)c3)c(Cc3ccc(S(N)(=O)=O)cc3F)c2C2CC2)n1`, the half-maximal inhibitory concentration (IC50) is > 57000 nM.

In the case of `NS(=O)(=O)c1ccc(Cc2c(-c3cccc(OC4CCCC4)c3)nn(-c3nc(C(=O)O)cs3)c2CC2CC2)cc1F`, the 50% inhibitory concentration (IC50) is < 100 nM.

As for `Cc1ccc(-c2cc(-c3c(Cc4ccc(S(N)(=O)=O)cc4)c(CC4CC4)nn3-c3nc(C(=O)O)cs3)ccc2F)cc1`, the IC50 result was “in the range around 29000 nM”.

In the case of `NS(=O)(=O)c1ccc(Cc2c(-c3cccc(C#CC4CCCC4)c3)nn(-c3nc(C(=O)O)cs3)c2CC2CC2)cc1F`, the half-inhibitory concentration (IC50) was < 100 nM.

As for `Cc1ccc(-c2cccc(-c3nn(-c4nc(C(=O)O)cs4)c(C(F)(F)F)c3Cc3ccc(S(N)(=O)=O)cc3)c2)cc1`, the IC50 is < 100 nM.

Consider `NS(=O)(=O)c1ccc(Cc2c(-c3cccc(N4CCC(C(F)(F)F)CC4)c3)nn(-c3nc(C(=O)O)cs3)c2CC2CC2)cc1F`, for which the IC50 is < 100 nM.

In the case of `NS(=O)(=O)c1ccc(Cc2c(-c3ccc(F)c(C#CC4CC4)c3)nn(-c3nc(C(=O)O)cs3)c2CC2CC2)cc1F`, the concentration for half-maximal inhibition (IC50) was < 100 nM.

As for `NS(=O)(=O)c1ccc(Oc2c(-c3ccccc3)nn(-c3nc(C(=O)O)cs3)c2C2CC2)cc1`, the IC50 is < 100 nM.

In the case of `NS(=O)(=O)c1cccc(Cc2c(-c3ccc(F)c(-c4cccc(F)c4)c3)nn(-c3nc(C(=O)O)cs3)c2CC2CC2)c1`, the half-inhibitory concentration (IC50) entry was “in the range around 29000 nM”.

`Cc1ncc(-c2cc(-c3nn(-c4nc(C(=O)O)cs4)c(CC4CC4)c3Cc3ccc(S(N)(=O)=O)c(F)c3)ccc2F)s1`: the IC50 is < 100 nM.

Regarding `Cc1ccc(-c2cc(-c3nn(-c4nc(C(=O)O)cs4)c(CC4CC4)c3Cc3ccc(S(N)(=O)=O)cc3)ccc2F)cc1`, the IC50 is < 100 nM.

With `NS(=O)(=O)c1ccc(Cc2c(-c3ccc(F)c(-c4cccc(F)c4)c3)nn(-c3nc(C(=O)O)cs3)c2CC2CC2)cc1F`, the IC50 was < 100 nM.

On to `CC(C)(C)Cc1cc(-c2nn(-c3nc(C(=O)O)cs3)c(CC3CC3)c2Cc2ccc(S(N)(=O)=O)c(F)c2)ccc1F`, for which the IC50 is < 100 nM.

On to `NS(=O)(=O)c1ccc(Cc2c(-c3cccc(N4CCOCC4)c3)nn(-c3ncc(C(=O)O)s3)c2CC2CC2)cc1F`, for which the 50% inhibitory concentration (IC50) is < 100 nM.

`CN1CC=C(c2cc(-c3nn(-c4nc(C(=O)O)cs4)c(CC4CC4)c3Cc3ccc(S(N)(=O)=O)c(F)c3)ccc2F)CC1`: the IC50 was < 100 nM.

Take `Cc1ccc(-c2cccc(-c3nn(-c4nc(C(=O)O)cs4)c(C4CC4)c3Cc3ccc(S(N)(=O)=O)cc3F)c2)cc1`: the IC50 was < 100 nM.

Consider `N#Cc1c(Cc2ccc(S(N)(=O)=O)cc2)c(-c2ccccc2)nn1-c1nc(C(=O)O)cs1`, for which the concentration for half-maximal inhibition (IC50) was < 100 nM.

Consider `NS(=O)(=O)c1ccc(Cc2c(-c3ccc(F)c(-c4ccc(F)cc4)c3)nn(-c3nc(C(=O)O)cs3)c2CC2CC2)cc1`, for which the IC50 was < 100 nM.

For `NS(=O)(=O)c1ccc(Cc2c(-c3ccc(F)c(C4CCOCC4)c3)nn(-c3nc(C(=O)O)cs3)c2CC2CC2)cc1F`, the IC50 was < 100 nM.

In the case of `O=C(O)c1csc(-n2nc(-c3ccc(F)cc3)cc2O)n1`, the IC50 is > 57000 nM.

As for `CCOC(=O)c1csc(-n2nc(CC3CC3)c(Cc3ccc(S(N)(=O)=O)c(F)c3)c2-c2ccc(F)c(-c3cccc(F)c3)c2)n1`, the IC50 was > 57000 nM.

With `NS(=O)(=O)c1ccc(Cc2c(-c3ccc(F)c(-c4ccc(C5CC5)cc4)c3)nn(-c3nc(C(=O)O)cs3)c2CC2CC2)cc1`, the IC50 is < 100 nM.

With `NS(=O)(=O)c1ccc(Cc2c(-c3ccc(F)c(-c4ccc(F)s4)c3)nn(-c3nc(C(=O)O)cs3)c2CC2CC2)cc1F`, the IC50 was < 100 nM.

With `NS(=O)(=O)c1ccc(Cc2c(-c3ccc(F)c(C#Cc4cccs4)c3)nn(-c3nc(C(=O)O)cs3)c2CC2CC2)cc1F`, the 50% inhibitory concentration (IC50) was < 100 nM.

For `CC(c1ccccc1)c1cc(-c2nn(-c3nc(C(=O)O)cs3)c(CC3CC3)c2Cc2ccc(S(N)(=O)=O)c(F)c2)ccc1F` (stereo not drawn), the IC50 was < 100 nM.

For `NS(=O)(=O)c1ccc(Cc2c(-c3cccc(N4CCCC(C(F)(F)F)C4)c3)nn(-c3nc(C(=O)O)cs3)c2CC2CC2)cc1F` (stereo not drawn), the half-inhibitory concentration (IC50) is < 100 nM.

Turning to `Cc1oc(=O)oc1COC(=O)c1csc(-n2nc(-c3ccc(F)c(C#CC4CCCC4)c3)c(Cc3ccc(S(N)(=O)=O)c(F)c3)c2CC2CC2)n1`, the concentration for half-maximal inhibition (IC50) was > 57000 nM.

For `NS(=O)(=O)c1ccc(Cc2c(C3(C(F)(F)F)CC3)nn(-c3nc(C(=O)O)cs3)c2-c2cccc(-c3ccccc3)c2)cc1F`, the IC50 entry was “in the range around 29000 nM”.

Take `O=C(O)c1csc(-n2nc(-c3ccc(F)c(F)c3)c(Cc3ccccc3)c2O)n1`: the IC50 was > 57000 nM.
